According to US8263608B2, “Melanocortin receptor-specific spiro-piperidine compounds” (Palatin Technologies, Inc., priority 2008, dated 2012):

Target: T1, MC1-R (Homo sapiens, UniProt Q01726)
T1 construct: or, for MC1-R, in HBL cells; endogenous in cells; host or cells: HBL cells
Assay: Assay for agonist activity: intracellular cAMP accumulation (functional assay)
Assay type: cell-based
Settings: functional assays at MC1-R; for EC50: HBL cells that express MC1-R, cAMP; for Emax: maximum efficacy compared to reference agonist NDP-α-MSH
Method: Accumulation of intracellular cAMP is examined as a measure of the ability of the test compounds to elicit a functional response in HEK-293 cells that express MC4-R, or, for MC1-R, in HBL cells. Confluent HEK-293 cells that express recombinant hMC4-R, or HBL cells that express MC1-R, are detached from culture plates by incubation in enzyme-free cell dissociation buffer. Dispersed cells are suspended in Earle's Balanced Salt Solution containing 10 mM HEPES (pH 7.5), 1 mM MgCl2, 1 mM glutamine, 0.5% albumin and 0.3 mM 3-isobutyl-1-methyl-xanthine (IBMX), a phosphodiesterase inhibitor. The cells are plated in 96-well plates at a density of 0.5 x 10^5 cells per well and pre-incubated for 30 minutes. Cells are exposed for 1 hour at 37° C. to test compounds dissolved in DMSO (final DMSO concentration of 1%) at a concentration range of 0.05-5000 nM in a total assay volume of 200 μL. NDP-α-MSH is used as the reference agonist. At the end of the incubation period, cells are disrupted by the addition of 50 μL of lysis buffer (cAMP EIA kit, Amersham) followed by vigorous pipetting. Levels of cAMP in the lysates are determined using a cAMP EIA kit (Amersham). Data analysis is performed by nonlinear regression analysis with Graph-Pad Prism® software. The maximum efficacies of the test compounds are compared to that achieved by the reference melanocortin agonist NDP-α-MSH.

T1 sequence (Q01726 whole entry): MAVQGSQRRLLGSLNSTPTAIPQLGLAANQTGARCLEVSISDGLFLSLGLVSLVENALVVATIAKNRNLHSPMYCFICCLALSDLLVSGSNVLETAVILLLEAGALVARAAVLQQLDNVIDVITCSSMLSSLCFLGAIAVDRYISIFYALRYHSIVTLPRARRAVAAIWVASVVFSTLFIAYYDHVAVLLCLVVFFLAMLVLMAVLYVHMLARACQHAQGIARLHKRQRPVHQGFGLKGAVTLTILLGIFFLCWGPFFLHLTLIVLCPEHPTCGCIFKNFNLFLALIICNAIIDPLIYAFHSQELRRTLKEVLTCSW

SMILES	functional status at MC1-R	EC50 [nM]	Emax [%]
COc1ccc(C[C@@H](NC(=O)CCc2c[nH]cn2)C(=O)N2CCC3(CC2)C(=O)N(Cc2ccc(Cl)cc2)CN3c2ccccc2)cc1 [Example 156, N-[(R)-2-[3-(4-Chloro-benzyl)-4-oxo-1-phenyl-1,3,8-triaza-spiro[4.5]dec-8-yl]-1-(4-methoxy-benzyl)-2-oxo-ethyl]-3-(1H-imidazol-4-yl)-propionamide]	partial agonist	23	45
COc1ccc(C[C@@H](NC(=O)CCc2c[nH]cn2)C(=O)N2CCC3(CC2)C(=O)N(Cc2ccccn2)CN3c2ccccc2)cc1 [Example 157, 3-(1H-Imidazol-4-yl)-N-[(R)-1-(4-methoxy-benzyl)-2-oxo-2-(4-oxo-1-phenyl-3-pyridin-2-ylmethyl-1,3,8-triaza-spiro[4.5]dec-8-yl)-ethyl]-propionamide]	partial agonist	41	38
CCN1CN(c2ccccc2)C2(CCN(C(=O)[C@@H](Cc3ccc(OC)cc3)NC(=O)[C@@H](N)Cc3cncn3C)CC2)C1=O [Example 140, (S)-2-Amino-N-[(R)-2-(3-ethyl-4-oxo-1-phenyl-1,3,8-triaza-spiro[4.5]dec-8-yl)-1-(4-methoxy-benzyl)-2-oxo-ethyl]-3-(3-methyl-3H-imidazol-4-yl)-propionamide]	partial agonist	25	42
COc1ccc(C[C@@H](NC(=O)[C@@H](N)Cc2cncn2C)C(=O)N2CCC3(CC2)C(=O)N(C)CN3c2ccccc2)cc1 [Example 139, (S)-2-Amino-N-[(R)-1-(4-methoxy-benzyl)-2-(3-methyl-4-oxo-1-phenyl-1,3,8-triaza-spiro[4.5]dec-8-yl)-2-oxo-ethyl]-3-(3-methyl-3H-imidazol-4-yl)-propionamide]	partial agonist	177	45
COc1ccc(C[C@@H](NC(=O)CCc2cnc[nH]2)C(=O)N2CCC3(CC2)C(=O)N(CCO)CN3c2ccccc2)cc1 [Example 149, N-[(R)-2-[3-(2-Hydroxy-ethyl)-4-oxo-1-phenyl-1,3,8-triaza-spiro[4.5]dec-8-yl]-1-(4-methoxy-benzyl)-2-oxo-ethyl]-3-(3H-imidazol-4-yl)-propionamide]	partial agonist	25	60
COC(=O)CN1CN(c2ccccc2)C2(CCN(C(=O)[C@@H](Cc3ccc(OC)cc3)NC(=O)CCc3cnc[nH]3)CC2)C1=O [Example 137, {8-[(R)-2-(3-3H-Imidazol-4-yl-propionylamino)-3-(4-methoxy-phenyl)-propionyl]-4-oxo-1-phenyl-1,3,8-triaza-spiro[4.5]dec-3-yl}-acetic acid methyl ester]	partial agonist	38	56
COC(=O)CN1CN(c2ccccc2)C2(CCN(C(=O)[C@@H](Cc3ccc(OC)cc3)NC(=O)CCCCN)CC2)C1=O [Example 138, {8-[(R)-2-(5-Amino-pentanoylamino)-3-(4-methoxy-phenyl)-propionyl]-4-oxo-1-phenyl-1,3,8-triaza-spiro[4.5]dec-3-yl}-acetic acid methyl ester]	partial agonist	340	44
COc1ccc(C[C@@H](NC(=O)CCc2c[nH]cn2)C(=O)N2CCC3(CC2)C(=O)N(Cc2ccccc2Cl)CN3c2ccccc2)cc1 [Example 154, N-[(R)-2-[3-(2-Chloro-benzyl)-4-oxo-1-phenyl-1,3,8-triaza-spiro[4.5]dec-8-yl]-1-(4-methoxy-benzyl)-2-oxo-ethyl]-3-(1H-imidazol-4-yl)-propionamide]	partial agonist	26	50

The next compounds have a lower EC50 than those just listed; values first:

functional status at MC1-R	EC50 [nM]	Emax [%]	SMILES
partial agonist	7	37	COc1ccc(C[C@@H](NC(=O)[C@@H](N)Cc2cncn2C)C(=O)N2CCC3(CC2)C(=O)N(C2CCCC2)CN3c2ccccc2)cc1 [Example 151, (S)-2-Amino-N-[(R)-2-(3-cyclopentyl-4-oxo-1-phenyl-1,3,8-triaza-spiro[4.5]dec-8-yl)-1-(4-methoxy-benzyl)-2-oxo-ethyl]-3-(3-methyl-3H-imidazol-4-yl)-propionamide]
partial agonist	20	45	COc1ccc(C[C@@H](NC(=O)CCc2c[nH]cn2)C(=O)N2CCC3(CC2)C(=O)N(Cc2cccnc2)CN3c2ccccc2)cc1 [Example 158, 3-(1H-Imidazol-4-yl)-N-[(R)-1-(4-methoxy-benzyl)-2-oxo-2-(4-oxo-1-phenyl-3-pyridin-3-ylmethyl-1,3,8-triaza-spiro[4.5]dec-8-yl)-ethyl]-propionamide]
partial agonist	17	46	COc1ccc(C[C@@H](NC(=O)[C@@H](N)Cc2cncn2C)C(=O)N2CCC3(CC2)C(=O)N(Cc2ccccc2)CN3c2ccccc2)cc1 [Example 144, (S)-2-Amino-N-[(R)-2-(3-benzyl-4-oxo-1-phenyl-1,3,8-triaza-spiro[4.5]dec-8-yl)-1-(4-methoxy-benzyl)-2-oxo-ethyl]-3-(3-methyl-3H-imidazol-4-yl)-propionamide]
partial agonist	14	42	COc1ccc(C[C@@H](NC(=O)CCc2c[nH]cn2)C(=O)N2CCC3(CC2)C(=O)N(Cc2cccc(Cl)c2)CN3c2ccccc2)cc1 [Example 155, N-[(R)-2-[3-(3-Chloro-benzyl)-4-oxo-1-phenyl-1,3,8-triaza-spiro[4.5]dec-8-yl]-1-(4-methoxy-benzyl)-2-oxo-ethyl]-3-(1H-imidazol-4-yl)-propionamide]
partial agonist	12	54	COc1ccc(C[C@@H](NC(=O)CCc2c[nH]cn2)C(=O)N2CCC3(CC2)C(=O)N(Cc2ccccc2)CN3c2ccccc2)cc1 [Example 153, N-[(R)-2-(3-Benzyl-4-oxo-1-phenyl-1,3,8-triaza-spiro[4.5]dec-8-yl)-1-(4-methoxy-benzyl)-2-oxo-ethyl]-3-(1H-imidazol-4-yl)-propionamide]
partial agonist	0.7	75	COc1ccc(C[C@@H](NC(=O)C[C@H]2Cc3ccccc3CN2)C(=O)N2CCC3(CC2)C(=O)N(C(C)C)CN3c2ccccc2)cc1 [Example 164, N-[(R)-2-(3-Isopropyl-4-oxo-1-phenyl-1,3,8-triaza-spiro[4.5]dec-8-yl)-1-(4-methoxy-benzyl)-2-oxo-ethyl]-2-(R)-1,2,3,4-tetrahydro-isoquinolin-3-yl-acetamide]
partial agonist	20	43	CCCCN1CN(c2ccccc2)C2(CCN(C(=O)[C@@H](Cc3ccc(OC)cc3)NC(=O)[C@@H](N)Cc3cncn3C)CC2)C1=O [Example 142, (S)-2-Amino-N-[(R)-2-(3-butyl-4-oxo-1-phenyl-1,3,8-triaza-spiro[4.5]dec-8-yl)-1-(4-methoxy-benzyl)-2-oxo-ethyl]-3-(3-methyl-3H-imidazol-4-yl)-propionamide]
partial agonist	3	71	COc1ccc(C[C@@H](NC(=O)CCc2cnc[nH]2)C(=O)N2CCC3(CC2)C(=O)N(C(C)C)CN3c2ccccc2)cc1 [Example 150, 3-(3H-Imidazol-4-yl)-N-[(R)-2-(3-isopropyl-4-oxo-1-phenyl-1,3,8-triaza-spiro[4.5]dec-8-yl)-1(4-methoxy-benzyl)-2-oxo-ethyl]-propionamide]
partial agonist	6	45	COc1ccc(C[C@@H](NC(=O)[C@@H](N)Cc2cncn2C)C(=O)N2CCC3(CC2)C(=O)N(C(C)C)CN3c2ccccc2)cc1 [Example 141, (S)-2-Amino-N-[(R)-2-(3-isopropyl-4-oxo-1-phenyl-1,3,8-triaza-spiro[4.5]dec-8-yl)-1-(4-methoxy-benzyl)-2-oxo-ethyl]-3-(3-methyl-3H-imidazol-4-yl)-propionamide]
partial agonist	2	50	COc1ccc(C[C@@H](NC(=O)CCc2cnc[nH]2)C(=O)N2CCC3(CC2)C(=O)N(C2CCCC2)CN3c2ccccc2)cc1 [Example 152, N-[(R)-2-(3-Cyclopentyl-4-oxo-1-phenyl-1,3,8-triaza-spiro[4.5]dec-8-yl)-1-(4-methoxy-benzyl)-2-oxo-ethyl]-3-(3H-imidazol-4-yl)-propionamide]
partial agonist	6	49	COc1ccc(C[C@@H](NC(=O)CCc2cnc[nH]2)C(=O)N2CCC3(CC2)C(=O)N(C2CCC2)CN3c2ccccc2)cc1 [Example 159, N-[(R)-2-(3-Cyclobutyl-4-oxo-1-phenyl-1,3,8-triaza-spiro[4.5]dec-8-yl)-1-(4-methoxy-benzyl)-2-oxo-ethyl]-3-(3H-imidazol-4-yl)-propionamide]
